The values that follow come from paper PMC6445123 (Scientific Reports, 2019).

As usually defined, the inhibition is the drop in the measured response relative to a control, in per cent. Usually IC50 stands for the point on the concentration scale where inhibition reaches its midpoint.

Like-named read-outs stand apart in the source and are kept apart here.

In test [1] the target is T1, recombinant active Casp6 (Casp6-WT) (Homo sapiens, UniProt P55212, INS179NQTEKLDTNITEVD).
T1 construct: generating mainly large subunit with a linker (LS-L), small subunit (SS), and a minor amount of large subunit (LS); His (C); made in house; host or cells: E. coli BL21(DE3)pLysS
T1 sequence (P55212 24-193 limits assumed): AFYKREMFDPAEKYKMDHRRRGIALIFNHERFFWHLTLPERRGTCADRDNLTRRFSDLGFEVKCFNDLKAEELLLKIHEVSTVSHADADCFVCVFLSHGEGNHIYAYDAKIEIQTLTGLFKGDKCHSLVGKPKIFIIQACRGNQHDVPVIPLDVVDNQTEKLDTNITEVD
T1 sequence (P55212 194-293 limits assumed): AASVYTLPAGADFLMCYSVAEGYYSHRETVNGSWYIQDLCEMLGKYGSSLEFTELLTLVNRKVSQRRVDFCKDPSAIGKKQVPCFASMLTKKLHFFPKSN
Kind of test: Fluorescence-based Ac-VEID-AFC cleavage assay (Casp6 activity, IC50 determination). In kind it is biochemical. On the procedure:
To assess the potency of in silico hits, a fluorescence-based Ac-VEID-AFC cleavage assay was used to measure recombinant active Casp6 reaction rate in the absence or presence of 100 µM concentration of compounds. A 30% inhibition cut off was arbitrarily chosen for further investigation of putative inhibitors. […] AFC signal interference by compound intrinsic fluorescence was ruled out (Fig. S4). Casp6 inhibition was confirmed for seven compounds (C7, C13, C14, S2, S10, S11 and S13) using a colorimetric Ac-VEID-pNA cleavage assay (Table 2, Fig. S3).
Casp6 active sites were quantified using zVAD-FMK (N-benzyloxycarbonyl-Val-Ala-Asp-(O-methyl)-fluoromethylketone, MP Biomedicals, Santa Ana, CA, USA)[51],[64]. Casp6 activity was measured in Stennicke’s buffer (SB: 20 mM piperazine-N,N′-bis-(2-ethanesulfonic acid) pH 7.2, 100 mM NaCl, 10 mM DTT, 1 mM EDTA, 0.1% 3-[(3-cholamidopropyl)-dimethylammonio]-2-hydroxy-1-propanesulfonic acid, 10% sucrose)[65] using 40 µM Ac-VEID-AFC (Ac-Val-Glu-Ile-Asp-7-Amino-4-trifluoromethylcoumarin, Enzo Life Sciences, Farmingdale, NY, USA)[64] and 10-250 nM active site titrated Casp6. Reactions were initiated by Ac-VEID-AFC addition and followed for 20 min at 37 °C in a black clear bottom 96-well microplate (Costar, Corning, NY, USA) in Synergy H4 Hybrid instrument (BioTek, Winooski, VT, USA) with excitation/emission at 380/505 nm. Released AFC was calculated from AFC standard curve (0-25 µM). Casp6 VEIDase activity (released pmol AFC/min) was calculated from the initial linear reaction part. Ac-VEID-AFC hydrolysis initial velocities were measured with 10 nM active-site titrated Casp6 and […] Ac-VEID-AFC. Initial velocities v versus substrate concentration [S] were fit to a rectangular hyperbola using Michaelis-Menten equation in GraphPad Prism 5 (GraphPad Software, La Jolla, CA, USA).
In fluorescence-based Casp6 activity assay, 10 µM Ac-VEID-AFC was added to 20 nM Casp6 in SB with 100 μM compound and 1% dimethyl sulfoxide (DMSO), and reaction rate was measured for 20 min at 37 °C as above. Compound potency was calculated by normalising Ac-VEID-AFC cleavage rate to 1% DMSO control. In colorimetric Casp6 activity assay, 200 µM Ac-VEID-pNA (N-acetyl-Val-Glu-Ile-Asp-p-nitroanilide, Enzo Life Sciences) was added to 200 nM Casp6 in SB with 100 μM compound, and Ac-VEID-pNA cleavage rate was measured at 37 °C for 30 min in clear 96-well plate (Sartstedt, Nümbrecht, Germany) using Synergy H4 plate reader at 405 nm. Absorbance was converted to the released pNA amount based on a standard curve of 0–250 µM pNA. Cleavage rates were calculated from the linear assay phase and were normalised to 1% DMSO control. In Casp6-C163A cleavage assay, 0.5 ng/µl Casp6-WT was preincubated with 100 µM inhibitor, 5 µM Q-VD-OPh or 1% DMSO in SB (30 min, RT), followed by transfer on ice, addition of 0.5 µg/µl Casp6-C163A, and incubation (37 °C, 5, 10 and 15 min). Reactions were stopped by adding SDS-PAGE sample buffer (62.5 mM Tris pH 6.8, 2% SDS, 0.1 M DTT, 0.01% Bromphenol Blue, 10% glycerol) and heating (5 min, 95 °C). Samples (2 µl) were analysed on 15% SDS-PAGE gels, proteins were stained with Coomassie blue, and gels were de-stained with 10% acetic acid. The intensities of protein bands were quantified from scanned gels using ImageJ. The band intensity of Casp6-C163A without a prodomain was plotted against the time and the Casp6-C163A cleavage rates were calculated from the slopes of linear plots. The % activity of Casp6-WT in the presence of inhibitors was calculated relative to DMSO control.
IC50 values were determined against 20 nM Casp6 active sites in fluorescence-based Casp6 activity assay with 10 µM Ac-VEID-AFC and 1 nM-500 µM inhibitor. IC50 was calculated with GraphPad Prism 5 by a nonlinear regression fit for log inhibitor vs relative Casp6 activity (% DMSO control) using a Hill slope of – 1, and top and bottom constraints of 100 and 0, respectively.

For a further test, the target named is T2, Casp6 (Homo sapiens, UniProt P55212, INS179NQTEKLDTNITEVD).
T2 construct: generating mainly large subunit with a linker (LS-L), small subunit (SS), and a minor amount of large subunit (LS); His (C); made in house; host or cells: E. coli BL21(DE3)pLysS
T2 sequence (P55212 24-193 limits assumed): T1 sequence (P55212 24-193 limits assumed)
T2 sequence (P55212 194-293 limits assumed): T1 sequence (P55212 194-293 limits assumed)
The test is described as follows: Reversibility of Casp6 inhibition (pre-incubation at 10-fold IC50, rapid 100-fold dilution). To be noted: recovery of activity after 60 min pre-incubation and 100-fold dilution. The class given is biochemical. How it is done: Supplementary Figure S5. Mechanism of Casp6 inhibition with C13 and S10G. (a) Inhibition of Casp6 with C13 (left panel) and S10G (right panel) is reversible. The recovery of Casp6 activity after 60 min pre-incubation with C13 and S10G at a concentration of inhibitor equal to 10-fold the IC50 value followed by a rapid 100-fold […]
(1 picture or pasted object on this page, not shown here) […]
dilution into Casp6 activity assay solution. The control samples DMSO and Q-VD-OPh were pre-incubated and diluted in the absence of inhibitor, and in the presence of an irreversible inhibitor Q-VD-OPh, respectively. Data points represent mean ± standard error of the mean (SEM) from three independent experiments. (b) Coomassie stain of SDS-PAGE of purified recombinant WT -, L200A-, and K284A-Casp6 (left panel) expressed from a full -length Casp6 encoding construct (Fig. 1c ), and copurified LS and SS of WT -, L200A-, and K284A-LS-SS-Casp6 (right panel). FL (full-length Casp6), ΔCasp6 (Casp6 without a prodomain), LS-L (large subunit with linker), LS (large subunit), and SS (small subunit) depict different bands of Casp6. (c) Michaelis-Menten kinetic plots (top panel) and calculated KM and Vmax values (bottom panel) for Casp6-WT-LS-SS (left panel), Casp6-L200A-LS-SS (middle panel), and Casp6-K284A-LS-SS (right panel) enzymatic activity in presence of 1% DMSO (0 µM C13) or increasing doses of C13. […]

As to `COC(=O)c1cc(CNC(=O)C2Cc3ccccc3O2)cc(NC(=O)c2ccco2)c1` (centres unmarked) [Compound C13], in test [1] (100 µM compound, 10 µM Ac-VEID-AFC, 20 nM Casp6, relative to 1% DMSO control), the inhibition at 100 µM was found to be 57.1 ± 4.7%. Further, the IC50 in test [1] (Casp6-WT, compared with Casp6-K284A, read-out: IC50 of C13 for Casp6-WT (Fig. 4f)) was 17.2 ± 3.6 µM; in test [1] (fluorescence assay, 20 nM Casp6 active sites, 10 µM Ac-VEID-AFC, read-out: IC50) it was 13.2 ± 2.5 µM. In test [1] (synthesised in the authors' laboratory vs commercial source), the “potency for Casp6 of in-house synthesised compound compared to commercial compound” value is recorded as “lower potency”. In addition, the “reversibility of Casp6 inhibition” value on Casp6 is “reversible”.
